What was measured:
Format in all cases: cell-based
[1] = molecular target: proteins of HEK293T cells transiently overexpressing caspase-6 (Homo sapiens, UniProt P22314); conditions: exp_ref Probe; protein UBA1 (P22314); analysis C6
[2] = molecular target: proteins of HEK293T cells transiently overexpressing caspase-6 (Homo sapiens, UniProt P07237); conditions: protein P4HB (P07237)
[3] = molecular target: proteins of HEK293T cells transiently overexpressing caspase-6 (Homo sapiens, UniProt P31930); conditions: Probe; protein UQCRC1 P31930
[4] = molecular target: proteins of HEK293T cells transiently overexpressing caspase-6 (Homo sapiens, UniProt P27694); conditions: Probe; protein RPA1 P27694
[5] = molecular target: proteins of HEK293T cells transiently overexpressing caspase-6 (Homo sapiens, UniProt P35908); conditions: Probe; protein KRT2 P35908
[6] = molecular target: proteins of HEK293T cells transiently overexpressing caspase-6 (Homo sapiens, UniProt P18621); conditions: exp_ref Probe; protein RPL17 (P18621); analysis C6
[7] = molecular target: T1, proteins of HEK293T cells transiently overexpressing caspase-6 (Homo sapiens, UniProt P26583)
T1 sequence (P26583 1-209): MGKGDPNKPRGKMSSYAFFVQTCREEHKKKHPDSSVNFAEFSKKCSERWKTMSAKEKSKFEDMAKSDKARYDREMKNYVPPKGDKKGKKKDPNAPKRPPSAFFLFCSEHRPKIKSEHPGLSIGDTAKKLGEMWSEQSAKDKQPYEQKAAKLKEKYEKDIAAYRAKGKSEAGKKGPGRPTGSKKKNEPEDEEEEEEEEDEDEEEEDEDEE

[8] = molecular target: proteins of HEK293T cells transiently overexpressing caspase-6 (Homo sapiens, UniProt Q9Y5B9); conditions: Probe; protein SUPT16H Q9Y5B9
[9] = molecular target: proteins of HEK293T cells transiently overexpressing caspase-6 (Homo sapiens, UniProt Q15029); conditions: exp_ref Probe; protein EFTUD2 (Q15029); analysis C6
[10] = molecular target: proteins of HEK293T cells transiently overexpressing caspase-6 (Homo sapiens, UniProt P14314); conditions: Probe; protein PRKCSH P14314
[11] = molecular target: proteins of HEK293T cells transiently overexpressing caspase-6 (Homo sapiens, UniProt Q13428); conditions: exp_ref Probe; protein TCOF1 (Q13428); analysis C6
[12] = molecular target: proteins of HEK293T cells transiently overexpressing caspase-6 (Homo sapiens, UniProt O75874); conditions: exp_ref Probe; protein IDH1 (O75874); analysis C6
[13] = molecular target: proteins of HEK293T cells transiently overexpressing caspase-6 (Homo sapiens, UniProt O96008); conditions: exp_ref Probe; protein TOMM40 (O96008); analysis C6
[14] = molecular target: proteins of HEK293T cells transiently overexpressing caspase-6 (Homo sapiens, UniProt P35998); conditions: exp_ref Probe; protein PSMC2 (P35998); analysis C6
[15] = molecular target: proteins of HEK293T cells transiently overexpressing caspase-6 (Homo sapiens, UniProt Q9NZI8); conditions: Probe; protein IGF2BP1 Q9NZI8
Chain of proteins of HEK293T cells transiently overexpressing caspase-6 (Homo sapiens, UniProt Q9NZI8) (Q9NZI8 whole entry): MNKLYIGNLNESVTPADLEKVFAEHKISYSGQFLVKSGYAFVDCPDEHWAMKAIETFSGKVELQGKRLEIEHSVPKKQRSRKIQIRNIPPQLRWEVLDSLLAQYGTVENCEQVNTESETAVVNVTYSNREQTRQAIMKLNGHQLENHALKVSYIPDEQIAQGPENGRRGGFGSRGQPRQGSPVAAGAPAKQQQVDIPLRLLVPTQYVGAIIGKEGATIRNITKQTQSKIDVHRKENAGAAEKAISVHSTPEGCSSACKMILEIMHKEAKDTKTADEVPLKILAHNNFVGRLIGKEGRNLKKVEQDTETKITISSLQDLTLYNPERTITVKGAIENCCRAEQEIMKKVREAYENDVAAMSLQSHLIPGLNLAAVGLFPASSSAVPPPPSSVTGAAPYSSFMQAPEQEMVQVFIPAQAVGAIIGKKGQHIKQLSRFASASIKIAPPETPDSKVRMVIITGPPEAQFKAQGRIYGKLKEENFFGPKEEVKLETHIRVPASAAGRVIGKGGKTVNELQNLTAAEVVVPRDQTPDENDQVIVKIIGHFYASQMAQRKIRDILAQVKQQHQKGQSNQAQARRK

[16] = molecular target: proteins of HEK293T cells transiently overexpressing caspase-6 (Homo sapiens, UniProt Q96K37); conditions: protein SLC35E1 (Q96K37); exp_ref Probe; analysis C6
Chain of proteins of HEK293T cells transiently overexpressing caspase-6 (Homo sapiens, UniProt Q96K37) (Q96K37 whole entry): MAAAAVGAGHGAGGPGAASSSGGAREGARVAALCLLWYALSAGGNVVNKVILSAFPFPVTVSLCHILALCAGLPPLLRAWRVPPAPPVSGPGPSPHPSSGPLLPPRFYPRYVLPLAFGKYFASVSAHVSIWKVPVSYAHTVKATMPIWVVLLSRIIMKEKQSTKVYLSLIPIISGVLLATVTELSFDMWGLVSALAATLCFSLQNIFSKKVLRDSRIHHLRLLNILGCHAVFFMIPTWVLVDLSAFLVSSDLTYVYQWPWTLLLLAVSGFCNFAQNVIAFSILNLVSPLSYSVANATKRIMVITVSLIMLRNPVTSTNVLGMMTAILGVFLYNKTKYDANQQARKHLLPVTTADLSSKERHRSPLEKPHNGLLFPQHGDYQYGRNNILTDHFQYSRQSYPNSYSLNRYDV

[17] = molecular target: proteins of HEK293T cells transiently overexpressing caspase-6 (Homo sapiens, UniProt P11142); conditions: protein HSPA8 (P11142)
Chain of proteins of HEK293T cells transiently overexpressing caspase-6 (Homo sapiens, UniProt P11142) (P11142 whole entry): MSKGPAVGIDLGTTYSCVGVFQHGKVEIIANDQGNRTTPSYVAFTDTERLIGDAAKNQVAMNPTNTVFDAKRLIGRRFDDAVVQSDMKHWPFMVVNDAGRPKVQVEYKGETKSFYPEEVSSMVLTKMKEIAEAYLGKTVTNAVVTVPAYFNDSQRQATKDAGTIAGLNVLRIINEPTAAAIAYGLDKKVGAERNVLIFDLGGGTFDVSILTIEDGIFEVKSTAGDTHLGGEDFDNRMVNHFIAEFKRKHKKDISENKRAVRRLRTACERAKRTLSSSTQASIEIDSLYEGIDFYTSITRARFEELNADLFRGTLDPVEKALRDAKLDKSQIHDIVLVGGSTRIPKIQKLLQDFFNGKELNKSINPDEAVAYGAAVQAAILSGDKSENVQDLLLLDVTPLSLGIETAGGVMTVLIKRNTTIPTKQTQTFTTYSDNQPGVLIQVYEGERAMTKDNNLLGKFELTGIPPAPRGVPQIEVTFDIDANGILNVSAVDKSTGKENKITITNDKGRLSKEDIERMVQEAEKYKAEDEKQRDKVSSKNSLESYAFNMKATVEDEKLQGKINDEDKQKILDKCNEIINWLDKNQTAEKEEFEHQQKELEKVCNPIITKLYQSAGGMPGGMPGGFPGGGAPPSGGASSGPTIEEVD

[18] = molecular target: proteins of HEK293T cells transiently overexpressing caspase-6 (Homo sapiens, UniProt P60842); conditions: exp_ref Probe; protein EIF4A1 (P60842); analysis C6
[19] = molecular target: proteins of HEK293T cells transiently overexpressing caspase-6 (Homo sapiens, UniProt P46379); conditions: exp_ref Probe; protein BAG6 (P46379); analysis C6
[20] = molecular target: proteins of HEK293T cells transiently overexpressing caspase-6 (Homo sapiens, UniProt P16615); conditions: protein ATP2A2 (P16615)
Chain of proteins of HEK293T cells transiently overexpressing caspase-6 (Homo sapiens, UniProt P16615) (P16615 whole entry): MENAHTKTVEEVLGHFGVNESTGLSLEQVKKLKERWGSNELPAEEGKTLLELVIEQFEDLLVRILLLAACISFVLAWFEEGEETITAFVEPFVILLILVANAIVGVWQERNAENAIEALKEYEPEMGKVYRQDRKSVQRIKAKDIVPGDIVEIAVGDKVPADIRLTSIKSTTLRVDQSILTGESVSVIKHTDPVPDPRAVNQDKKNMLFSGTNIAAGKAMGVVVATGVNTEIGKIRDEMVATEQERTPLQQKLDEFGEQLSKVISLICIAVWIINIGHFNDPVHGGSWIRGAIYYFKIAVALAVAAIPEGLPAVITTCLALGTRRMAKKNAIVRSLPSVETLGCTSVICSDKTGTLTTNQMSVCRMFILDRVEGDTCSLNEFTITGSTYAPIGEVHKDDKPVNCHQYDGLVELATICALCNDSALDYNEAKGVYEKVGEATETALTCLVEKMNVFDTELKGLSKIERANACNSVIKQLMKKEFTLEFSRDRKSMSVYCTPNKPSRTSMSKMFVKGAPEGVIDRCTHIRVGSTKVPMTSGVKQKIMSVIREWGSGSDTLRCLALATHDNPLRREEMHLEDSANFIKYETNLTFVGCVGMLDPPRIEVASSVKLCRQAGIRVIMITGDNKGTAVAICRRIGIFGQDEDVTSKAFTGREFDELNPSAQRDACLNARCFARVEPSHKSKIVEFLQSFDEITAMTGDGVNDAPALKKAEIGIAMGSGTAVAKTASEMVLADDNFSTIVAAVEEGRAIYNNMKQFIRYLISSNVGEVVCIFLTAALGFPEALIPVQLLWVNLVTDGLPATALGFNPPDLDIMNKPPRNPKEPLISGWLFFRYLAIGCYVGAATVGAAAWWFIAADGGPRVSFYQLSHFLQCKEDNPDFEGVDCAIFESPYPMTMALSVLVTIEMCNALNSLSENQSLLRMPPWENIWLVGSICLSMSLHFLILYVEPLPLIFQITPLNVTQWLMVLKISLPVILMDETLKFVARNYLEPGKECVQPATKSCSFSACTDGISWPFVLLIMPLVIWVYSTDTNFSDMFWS

[21] = molecular target: proteins of HEK293T cells transiently overexpressing caspase-6 (Homo sapiens, UniProt O00541); conditions: protein PES1 (O00541); exp_ref Probe; analysis C6
Chain of proteins of HEK293T cells transiently overexpressing caspase-6 (Homo sapiens, UniProt O00541) (O00541 whole entry, looked up): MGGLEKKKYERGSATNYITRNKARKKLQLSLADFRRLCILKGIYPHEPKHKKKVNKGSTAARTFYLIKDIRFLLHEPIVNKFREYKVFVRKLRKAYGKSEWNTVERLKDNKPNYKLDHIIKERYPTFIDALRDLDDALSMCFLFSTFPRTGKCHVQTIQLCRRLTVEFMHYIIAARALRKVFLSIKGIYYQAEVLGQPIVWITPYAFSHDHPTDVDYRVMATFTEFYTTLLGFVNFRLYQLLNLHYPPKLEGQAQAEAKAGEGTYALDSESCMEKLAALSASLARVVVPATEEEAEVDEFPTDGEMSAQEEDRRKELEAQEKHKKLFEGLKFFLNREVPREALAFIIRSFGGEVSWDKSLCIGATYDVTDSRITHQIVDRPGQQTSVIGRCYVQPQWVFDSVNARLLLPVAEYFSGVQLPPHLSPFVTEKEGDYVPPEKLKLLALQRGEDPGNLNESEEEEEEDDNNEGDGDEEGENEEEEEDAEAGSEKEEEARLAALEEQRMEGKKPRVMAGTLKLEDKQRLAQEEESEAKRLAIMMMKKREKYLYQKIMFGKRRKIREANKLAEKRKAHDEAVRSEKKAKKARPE

[22] = molecular target: proteins of HEK293T cells transiently overexpressing caspase-6 (Homo sapiens, UniProt P39023); conditions: exp_ref Probe; protein RPL3 (P39023); analysis C6

Chain of proteins of HEK293T cells transiently overexpressing caspase-6 (Homo sapiens, UniProt P07237) (P07237 18-508): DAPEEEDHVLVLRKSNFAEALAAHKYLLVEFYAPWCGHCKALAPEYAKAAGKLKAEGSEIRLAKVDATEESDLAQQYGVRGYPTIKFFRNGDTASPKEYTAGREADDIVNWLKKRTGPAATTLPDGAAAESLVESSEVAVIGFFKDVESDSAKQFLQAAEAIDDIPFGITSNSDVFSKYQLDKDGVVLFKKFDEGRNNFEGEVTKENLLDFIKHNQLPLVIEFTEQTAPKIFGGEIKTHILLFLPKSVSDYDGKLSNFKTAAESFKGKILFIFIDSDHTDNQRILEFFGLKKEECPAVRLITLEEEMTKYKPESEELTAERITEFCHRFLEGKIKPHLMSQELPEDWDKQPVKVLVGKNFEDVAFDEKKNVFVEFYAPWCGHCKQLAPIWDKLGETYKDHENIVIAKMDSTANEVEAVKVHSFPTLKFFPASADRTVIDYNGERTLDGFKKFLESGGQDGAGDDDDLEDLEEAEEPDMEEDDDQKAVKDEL
Chain of proteins of HEK293T cells transiently overexpressing caspase-6 (Homo sapiens, UniProt P22314) (P22314 whole entry): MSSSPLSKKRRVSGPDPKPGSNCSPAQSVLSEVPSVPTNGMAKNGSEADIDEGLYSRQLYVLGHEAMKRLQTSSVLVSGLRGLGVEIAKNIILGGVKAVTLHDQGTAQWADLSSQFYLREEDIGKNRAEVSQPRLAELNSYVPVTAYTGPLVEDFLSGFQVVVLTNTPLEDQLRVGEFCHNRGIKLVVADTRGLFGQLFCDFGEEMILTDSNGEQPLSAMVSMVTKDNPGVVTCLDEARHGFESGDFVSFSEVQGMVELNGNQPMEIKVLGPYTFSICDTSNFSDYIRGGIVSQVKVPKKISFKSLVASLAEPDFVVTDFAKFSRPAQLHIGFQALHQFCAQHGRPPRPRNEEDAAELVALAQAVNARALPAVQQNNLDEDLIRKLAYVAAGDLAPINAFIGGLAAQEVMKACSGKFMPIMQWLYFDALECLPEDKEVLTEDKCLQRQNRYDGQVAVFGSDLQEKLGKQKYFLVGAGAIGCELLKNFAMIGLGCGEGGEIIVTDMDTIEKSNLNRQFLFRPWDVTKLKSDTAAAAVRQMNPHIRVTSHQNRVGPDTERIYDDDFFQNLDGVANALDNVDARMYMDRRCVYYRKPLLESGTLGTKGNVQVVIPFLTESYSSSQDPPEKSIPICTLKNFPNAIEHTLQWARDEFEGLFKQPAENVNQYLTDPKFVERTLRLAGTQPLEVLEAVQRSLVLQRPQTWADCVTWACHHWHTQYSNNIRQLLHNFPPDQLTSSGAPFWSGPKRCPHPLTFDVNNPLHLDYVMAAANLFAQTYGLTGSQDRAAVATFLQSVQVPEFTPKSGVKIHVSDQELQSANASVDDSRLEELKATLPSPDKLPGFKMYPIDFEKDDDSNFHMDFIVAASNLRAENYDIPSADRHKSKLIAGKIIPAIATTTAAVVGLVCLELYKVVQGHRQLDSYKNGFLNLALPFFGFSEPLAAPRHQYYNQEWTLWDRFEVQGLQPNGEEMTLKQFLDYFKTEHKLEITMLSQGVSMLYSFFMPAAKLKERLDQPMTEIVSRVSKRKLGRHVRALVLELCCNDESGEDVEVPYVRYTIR

## C#CCOc1ccc([C@@H]2C[C@@H](C(=O)Nc3ccc(OC(F)(F)F)cc3)CN(S(=O)(=O)C=C)C2)cc1 (relative stereo) [13-t]
[1]
  enrich.exp.med: 0.3187
[2]
  enrich.exp.med.lin: 4.024
  enrich.exp.med.log2: 2.009
[2]; exp_ref Probe, analysis C6
  enrich.exp.med: 2.009
[3]
  enrich.exp.med: -0.9693
[4]
  enrich.exp.med: -1.323
[5]
  enrich.exp.med: -8.257
[6]
  enrich.exp.med: 0.5148
[7]; Probe, protein HMGB2 P26583
  enrich.exp.med: -1.024
[7]; protein HMGB2 (P26583)
  enrich.exp.med.lin: 0.4916
  enrich.exp.med.log2: -1.024
[8]
  enrich.exp.med: -0.5962
[9]
  enrich.exp.med: 0.4056
[10]
  enrich.exp.med: -0.8366
[11]
  enrich.exp.med: 0.9444
[12]
  enrich.exp.med: -0.2162
[13]
  enrich.exp.med: 0.5045
[14]
  enrich.exp.med: 0.5412
[15]
  enrich.exp.med: -0.7898
[16]
  enrich.exp.med: 1.71
[17]; exp_ref Probe, analysis C6
  enrich.exp.med: 0.3873
[17]
  enrich.exp.med.lin: 1.308
  enrich.exp.med.log2: 0.3873
[18]
  enrich.exp.med: 0.8215
[19]
  enrich.exp.med: 0.9575
[20]
  enrich.exp.med.lin: 2.861
  enrich.exp.med.log2: 1.516
[20]; exp_ref Probe, analysis C6
  enrich.exp.med: 1.516
[21]
  enrich.exp.med: 1.47
[22]
  enrich.exp.med: -0.06221

— paper PMC10176470, “Engaging a Non-catalytic Cysteine Residue Drives Potent and Selective Inhibition of Caspase-6” (Journal of the American Chemical Society, 2023)
